In US20200261543A1, “COMBINATION THERAPY FOR TREATMENT OF BONE DISORDERS” (University of Copenhagen, priority 2017, published 2020):

Legend:
[1] = in vivo; cited from earlier work
[2] = test system: serum C-terminal cross-linking telopeptide of type I collagen (CTX); experiment: Serum CTX (bone resorption) after s.c. GLP-1, Example 5; type: in vivo, human; details: GLP-1 1.5 nmol/kg s.c.
Description: Eight healthy young people were enrolled (five male, three female). […] Participants arrived in the morning after an overnight fast. Blood samples were collected before (−15 and 0 min) and after injection (15, 30, 45, 60, 90 and 120 min). After last participant's last visit, bone resorption was determined by measurements of serum C-terminal cross-linking telopeptide of type I collagen (CTX; IDS Immunodiagnostic Systems GmbH, Frankfurt am Main, Germany).

[3] = test system: parathyroid hormone (PTH); experiment: Serum PTH after s.c. injection, Example 3; type: in vivo, human; details: for time of maximum effect on PTH: GIP 200 μg or GLP-2 800 μg s.c.; for PTH level at maximum effect: 15 min after injection
Description: Eight healthy young men were enrolled. The study included three study days in randomised order (with a minimum of 1 week washout between study days) where human GIP (200 μg), human GLP-2 (800 μg), or placebo was injected subcutaneously. Participants arrived in the morning (fasted overnight) and received the injection around 8.30 a.m. […] After last participant's last visit, bone resorption was determined by measurements of serum C-terminal cross-linking telopeptide of type I collagen (CTX; IDS Immunodiagnostic Systems GmbH, Frankfurt am Main, Germany)
(§1) Eight healthy young men were enrolled, and the study was conducted as outlined in Example 1. After last participant's last visit, bone resorption was determined by measurements of CTX (IDS Immunodiagnostic Systems GmbH, Frankfurt am Main, Germany) and bone formation was determined by measurements of serum N-terminal propeptide of type 1 collagen (P1NP; IDS Immunodiagnostic Systems GmbH, Frankfurt am Main, Germany). In addition, serum concentration of parathyroid hormone (PTH; IDS Immunodiagnostic Systems GmbH, Frankfurt am Main, Germany) was measured.

[4] = test system: serum N-terminal propeptide of type 1 collagen (P1NP); experiment: Serum P1NP (bone formation) after s.c. injection alone or in combination, Example 4; type: in vivo, human; details: for time of maximum effect on bone formation (P1NP): GIP 100 μg or GLP-2 400 μg s.c.
Description: (§2) Ten healthy young men are enrolled and the study includes four study days in randomised order (with a minimum of 1 week washout between study days) where human GIP (100 μg), human GLP-2 (400 μg), GIP+GLP-2 (100 μg+400 μg), or placebo are injected subcutaneously. The participants arrive in the morning (fasted overnight) and receive the injection around 8.30 a.m. Blood samples are collected before (−25 and −10) and every 30 minutes after injection (30, 60, 90, 120, 180 and 240 min) injection. After last participant's last visit, samples are analysed for concentrations of bone resorption markers (CTX).
as §1, with “Ten” for “Eight”, “are enrolled” for “were enrolled,”, “2.” for “1.”, “measured. The doses of GIP and GLP-2 were selected as discussed in example 2.” for “measured.”

[5] = test system: serum N-terminal propeptide of type 1 collagen (P1NP); experiment: Serum P1NP (bone formation) after s.c. injection, Example 3; type: in vivo, human; details: for time of maximum effect on bone formation (P1NP): GIP 200 μg or GLP-2 800 μg s.c.
Description: (§3) Eight healthy young men were enrolled. The study included three study days in randomised order (with a minimum of 1 week washout between study days) where human GIP (200 μg), human GLP-2 (800 μg), or placebo was injected subcutaneously. Participants arrived in the morning (fasted overnight) and received the injection around 8.30 a.m. Blood samples were collected before (−25 and −10 min) and every 30 minutes after injection (30, 60, 90, 120, 180 and 240 min). After last participant's last visit, bone resorption was determined by measurements of serum C-terminal cross-linking telopeptide of type I collagen (CTX; IDS Immunodiagnostic Systems GmbH, Frankfurt am Main, Germany)
as §1

[6] = test system: CTX; experiment: CTX (bone resorption) after s.c. injection alone or in combination, Example 2/4 study; type: in vivo, human; details: Example 4; for time of maximum effect on bone resorption (CTX): GIP 100 μg, GLP-2 400 μg or both s.c.
Description: as §2
as §1, with “Ten” for “Eight”, “are enrolled” for “were enrolled,”, “2.” for “1.”, “measured. The doses of GIP and GLP-2 were selected as discussed in example 2.” for “measured.”

[7] = test system: serum C-terminal cross-linking telopeptide of type I collagen (CTX); experiment: Serum CTX (bone resorption) after s.c. injection in healthy young men, Example 1/3 study; type: in vivo, human; details: for reduction in bone resorption (CTX): 200 μg GIP and 800 μg GLP-2, Example 1 as summarised in Example 2; for time of maximum effect on bone resorption (CTX): GIP 200 μg or GLP-2 800 μg s.c.
Description: as §3, §1

[8] = test system: serum C-terminal cross-linking telopeptide of type I collagen (CTX); experiment: Nocturnal CTX (bone resorption) in postmenopausal women, Example 6; type: in vivo, human
Description: Ten healthy postmenopausal women are enrolled and the study includes four study days in randomised order (with a minimum of 1 week washout between study days) where human GIP (hGIP 100 μg), human GLP-2 ([…]), hGIP+hGLP-2 (100 μg+400 μg), or placebo, are injected subcutaneously. The participants arrive in the evening around 9 p.m. (fasted from ˜7 p.m.) and receive the injections at 10 p.m. Blood samples are collected before (−10 and −5 min) and after injection (7, 15, 30, 45, 60, 90, 120, 180 and 240 min). Bone resorption was determined by measurements of serum C-terminal cross-linking telopeptide of type I collagen (CTX; IDS Immunodiagnostic Systems GmbH, Frankfurt am Main, Germany). The doses of GIP and GLP-2 were selected as discussed in example 2.

[9] = test system: parathyroid hormone (PTH); experiment: Serum PTH after s.c. injection alone or in combination, Example 4; type: in vivo, human; details: for time of maximum effect on PTH: GIP 100 μg, GLP-2 400 μg or both s.c.
Description: as §2, with “Blood samples are collected before (−25 and −10) and every 30 minutes after injection (30, 60, 90, 120, 180 and 240 min) injection.” left out
as §1, with “Ten” for “Eight”, “are enrolled” for “were enrolled,”, “2.” for “1.”, “measured. The doses of GIP and GLP-2 were selected as discussed in example 2.” for “measured.”

Question: Which fasting plasma levels [1] does the source give for “GLP-1: human glucagon-like peptide-1; which form (SEQ ID NO: 7, 8 or 9) was injected is not stated” here?
Answer: Its fasting plasma levels is 0 to 15 pmol/L.

Question: What about the “time of maximum effect on bone resorption (CTX)” value (“time of maximum effect … (CTX)” for short) [2] of the same substance?
Answer: The value was 120 min.

Question: And the “bone resorption (CTX) at maximum effect” value ([2]; 120 min after injection, healthy young people)?
Answer: The value was 74.4±3.7 % of base line.

Question: Which “time of maximum effect on PTH” value [3] does the source give for “HADGSFSDEMNTILDNLAARDFINWLIQTKITD [GLP-2]” here?
Answer: Its value is 15 min.

Question: And the “PTH level at maximum effect” value ([3]; GLP-2 800 μg s.c.)?
Answer: Its value is 71.9±13.9 % of basal levels.

Question: What about the “time of maximum effect on bone formation (P1NP)” value (“time of maximum effect … (P1NP)” for short) [4] of the same substance?
Answer: The value was 60 min.

Question: What about the “bone formation (P1NP) at maximum effect (reduction)” value ([4]; GLP-2 400 μg s.c., 60 min after injection) of the same substance?
Answer: Its value is 88.2±9.4 % of base line.

Question: And the “time of maximum effect … (P1NP)” value [5]?
Answer: Its value is 45 min.

Question: And the “bone formation (P1NP) at maximum effect (reduction)” value ([5]; GLP-2 800 μg s.c., 45 min after injection)?
Answer: Its value is 88.1±8.5 % of base line.

Question: And the “time of maximum effect … (CTX)” value [6]?
Answer: The value was 210 min.

Question: And the “bone resorption (CTX) at maximum effect” value ([6]; GLP-2 400 μg s.c. alone, 210 min after injection)?
Answer: Its value is 58.2±16.0 % of basal.

Question: And the “reduction in bone resorption (CTX)” value [7]?
Answer: The value was ~50%.

Question: And the “time of maximum effect … (CTX)” value ([7]; Example 1)?
Answer: Its value is 180 min.

Question: What about the “time of maximum effect … (CTX)” value ([7]; Example 3) of the same substance?
Answer: The value was 180 min.

Question: And the “bone resorption (CTX) at maximum effect” value ([7]; GLP-2 800 μg s.c., 180 min after administration, Example 3 (completed study))?
Answer: The value was 60.5±14.1 % of base line.

Question: And the “bone resorption (CTX) at maximum effect” value ([7]; GLP-2 800 μg s.c., 180 min after administration, healthy young men, Example 1)?
Answer: Its value is 63.4±3.4 % of base line.

Question: And the “nocturnal bone resorption (CTX) compared to placebo” value ([8]; GLP-2 400 μg s.c. at 10 p.m.)?
Answer: The value was “reduced bone resorption during the entire study period”.

Question: And the “time of maximum effect on PTH” value [9]?
Answer: The value was 45 min.

Question: What about the “PTH level at maximum effect” value ([9]; GLP-2 400 μg s.c., 45 min after injection) of the same substance?
Answer: The value was 65.7±16.8 % of basal levels.

Question: With “YAEGTFISDYSIAMDKIHQQDFVNWLLAQKGKKNDWKHNITQ [GIP]” as the substance, how does the “time of maximum effect on PTH” value [3] read?
Answer: Its value is 15 min.

Question: And the “PTH level at maximum effect” value ([3]; GIP 200 μg s.c.)?
Answer: The value was 71.2±11.4 % of basal levels.

Question: What about the “time of maximum effect … (P1NP)” value [4] of the same substance?
Answer: Its value is 30 min.

Question: And the “bone formation (P1NP) at maximum effect (increase)” value ([4]; GIP 100 μg s.c., 30 min after injection)?
Answer: Its value is 111.1±9.0 % of base line.

Question: And the “time of maximum effect … (P1NP)” value [5]?
Answer: The value was 30 min.

Question: What about the “bone formation (P1NP) at maximum effect (increase)” value ([5]; GIP 200 μg s.c., 30 min after injection) of the same substance?
Answer: The value was 115.1±6.2 % of base line.

Question: And the “bone resorption (CTX) at maximum effect” value ([6]; GIP 100 μg s.c. alone, 90 min after administration)?
Answer: Its value is 57.6±17.9 % of basal.

Question: And the “time of maximum effect … (CTX)” value [6]?
Answer: Its value is 90 min.

Question: And the “reduction in bone resorption (CTX)” value [7]?
Answer: Its value is ~50%.

Question: What about the “time of maximum effect … (CTX)” value ([7]; Example 1) of the same substance?
Answer: The value was 90 min.

Question: And the “time of maximum effect … (CTX)” value ([7]; Example 3)?
Answer: Its value is 90 min.

Question: What about the “bone resorption (CTX) at maximum effect” value ([7]; GIP 200 μg s.c., 90 min after injection, Example 3 (completed study)) of the same substance?
Answer: The value was 55.3±17.9 % of base line.

Question: And the “bone resorption (CTX) at maximum effect” value ([7]; GIP 200 μg s.c., 90 min after injection, healthy young men, Example 1)?
Answer: Its value is 56.2±11.2 % of base line.

Question: What about the “nocturnal bone resorption (CTX) compared to placebo” value ([8]; GIP 100 μg s.c. at 10 p.m.) of the same substance?
Answer: Its value is “reduced bone resorption was seen from 30 min to 120 min”.

Question: And the “PTH level at maximum effect” value ([9]; GIP 100 μg s.c., 15 min after injection)?
Answer: The value was 73.0±19.2 % of basal levels.

Question: What about the “time of maximum effect on PTH” value [9] of the same substance?
Answer: Its value is 15 min.
